# Experimental data: patent US5583108A, “Vasonatrin peptide and analogs thereof” (Mayo Foundation for Medical Education and Research, priority 1994, dated 1996)
# Tests used:
# normal rats = experiment: Cardiorenal actions after intravenous bolus in anesthetized normal rats; format: in vivo, Wistar rats; conditions: for MAP mean arterial pressure / HR heart rate / RAP right atrial pressure / UKV urine potassium excretion / UNaV urine sodium excretion / UV urine volume / UcGMPV urine cGMP volume / PcGMP plasma cGMP: mean ± SEM; for MAP mean arterial pressure: n = 4
# Procedure: (§1) The results obtained are expressed as the means ±SEM. In organ chamber studies, n equals the number of dogs from which rings were taken. Rings with and without endothelium were studied in parallel, and Student's t-test for unpaired observations was used to determine statistical significance among the responses of rings with and without endothelium and between responses of arteries and veins. In rat studies, the data were analyzed using ANOVA for repeated measures followed by Fisher's least significant difference test when appropriate within the group. Data between groups were analyzed by Student's unpaired t-test. Statistical significance was determined at p<0.05.
# Experiments were conducted in accordance with the Animal Welfare Act. Wistar rats and spontaneously hypertensive rats (SHR) (400 g; Harlan Sprague-Dawley, Indianapolis, Ind.) were anesthetized with Inactin (100 mg/kg; intraperitoneal; BYK Gulden, Konstanz, Germany). The body temperature was maintained between 36° and 38° C. by a heating pad. Tracheostomy was performed; however, the animals were not artificially ventilated. Polyethylene catheters (PE-50; Becton Dickinson Co., Parsippany, N.J.) were placed in the left Jugular vein for infusions of saline and drugs, in the right jugular vein to right atrium to monitor right atrial pressure, and in the carotid artery for the collection of blood samples and to monitor mean arterial pressure. A PE-90 catheter was placed in the bladder for urine collection.
# Experiments were conducted in three groups in normal rats: ANP group (n=4), CNP group (n=4), and VNP group (n=4). VNP also was studied in SHR rats (n=4). Intravenous infusions of saline solution (0.9% NaCl) were performed (1 ml/100 gm body weight/hr) through the left jugular vein catheter. After completion of surgery, rats were allowed to stabilize for 30 minutes. In each group, a 15-min baseline period followed. After the baseline period, saline solution (0.9% NaCl) was administered in a bolus fashion (0.1 ml) and was followed by a 15-min period. After the saline period, the peptide (ANP, CNP or VNP) was administered in a bolus fashion (0.1 ml) at 5 μg/kg which was followed by a 15-min period. This was followed by a second bolus (0.1 ml) at 50 μg/kg and a 15-min period. After a 30-min washout, a 15-min recovery period followed. During each experimental period, mean arterial pressure (MAP), heart rate (HR), and right atrial pressure (RAP) were measured. At the midpoint of baseline, second bolus fashion (50 μg/kg) and recovery periods, blood was sampled for plasma cGMP. At the end of each period, urine was measured for volume (UV), and samples were stored for electrolytes and cGMP analysis.
# Blood for plasma cGMP analysis was collected into EDTA tubes, immediately placed on ice, and centrifuged at […] at 4° C. Plasma was separated and stored at -20° C. until assay. Urine for cGMP determination was heated to >90° C. before storage. Plasma and urine cGMP were determined by a specific RIA as previously described by A. L. Steiner et al., J. Hypertension, 5 (Suppl. 5) 551-553 (1987).
# [1] = test system: isolated normal canine blood vessels; experiment: Organ chamber isometric force: relaxation of phenylephrine-contracted vessel rings; design: species or system dog; conditions: for relaxation: maximal dose (3×10^-6 M); for maximal response, percent change in tension from a contraction to phenylephrine: peptide 3 × 10^-6 M, mean ± SEM
# Procedure: as §1
# Rings cut from femoral, saphenous, renal and pulmonary arteries and veins obtained from random source mongrel dogs (anesthetized with 30 mg/kg pentobarbital sodium intravenously) were suspended for the measurement of isometric force in organ chambers filled with aerated (95% O2 and 5% CO2) modified Krebs-Ringer bicarbonate solution (composition in mM: 118.3 NaCl, 4.7 KCl, 2.5 CaCl2, 1.2 MgSO4, 1.2 KH2 PO4, 25.0 NaHCO3, 0.026 calcium sodium EDTA, and 11.1 dextrose; control solution) at 37° C. In one-half rings, the endothelium was removed by gently rubbing the intimal surface with a cotton swab wetted with control solution. Each ring was stretched to the optimal point on its length-tension curve as determined by the tension developed to norepinephrine (3×10^-7 M) at each level of stretch. The presence of endothelium was determined at the beginning of the experiment by a relaxation to acetylcholine (10^-6 M) during a contraction to norepinephrine at optimal length. The maximal tension of each ring was determined by norepinephrine (10^-4 M). To study responses to ANP, CNP and VNP, the rings were contracted with phenylephrine (10^-6 M). These contractions averaged 30-40% of the maximal contraction to norepinephrine. The peptides were added cumulatively once the contraction had stabilized.
# The following commercially available drugs were used: acetylcholine chloride (Sigma Chemical, St. Louis, Mo.), human ANP and human CNP (Peninsula Laboratories, Belmont, Calif.), L-norepinephrine bitartrate (Sigma), phenylephrine bitartrate (Sigma). All drugs were dissolved in distilled water immediately prior to study, and the concentrations are reported as the final molar concentration (M) in the organ chamber.
# [2] = normal rats, high dose (50 μg/kg) bolus
structure (smiles),measurement,setting,value
"CC[C@H](C)[C@@H]1NC(=O)[C@H](CCCNC(=N)N)NC(=O)[C@H](CC(=O)O)NC(=O)[C@H](CCSC)NC(=O)[C@H](CCCNC(=N)N)NC(=O)CNC(=O)CNC(=O)[C@H](Cc2ccccc2)NC(=O)[C@@H](NC(=O)[C@H](CO)NC(=O)[C@H](CO)NC(=O)[C@H](CCCNC(=N)N)NC(=O)[C@H](CCCNC(=N)N)NC(=O)[C@H](CC(C)C)NC(=O)[C@@H](N)CO)CSSC[C@@H](C(=O)N[C@@H](CC(N)=O)C(=O)N[C@@H](CO)C(=O)N[C@@H](Cc2ccccc2)C(=O)N[C@@H](CCCNC(=N)N)C(=O)N[C@@H](Cc2ccc(O)cc2)C(=O)O)NC(=O)CNC(=O)[C@H](CC(C)C)NC(=O)CNC(=O)[C@H](CO)NC(=O)[C@H](CCC(N)=O)NC(=O)[C@H](C)NC(=O)CNC1=O [ANP, atrial natriuretic peptide]",natriuretic action (in words),"normal rats; in vivo, rat",potent natriuretic
same,change in MAP and RAP (in words),normal rats; [2],significant decrease
same,"change in urine flow, sodium excretion, plasma cGMP and urinary cGMP volume (in words)",normal rats; [2],increased
same,MAP mean arterial pressure,"normal rats; normal rats, iv bolus 5 μg/kg, 15-min period",97 ± 12 mmHg
same,HR heart rate,"normal rats; normal rats, iv bolus 5 μg/kg",353 ± 14 beats/min
same,RAP right atrial pressure,"normal rats; normal rats, iv bolus 5 μg/kg",-2.3 ± 0.8 mmHg
same,UKV urine potassium excretion,"normal rats; normal rats, iv bolus 5 μg/kg",10.3 ± 3.5 µmol/min
same,UNaV urine sodium excretion,"normal rats; normal rats, iv bolus 5 μg/kg",13.2 ± 3.5 µmol/min
same,UV urine volume,"normal rats; normal rats, iv bolus 5 μg/kg",79 ± 10 µL/min
same,UcGMPV urine cGMP volume,"normal rats; normal rats, iv bolus 5 μg/kg",605 ± 151 pmol/min
same,HR heart rate,"normal rats; normal rats, iv bolus 50 μg/kg",355 ± 19 beats/min
same,PcGMP plasma cGMP,"normal rats; normal rats, iv bolus 50 μg/kg",25.7 ± 7.1 pmol/mL
same,RAP right atrial pressure,"normal rats; normal rats, iv bolus 50 μg/kg",-3.8 ± 0.8 mmHg
same,UKV urine potassium excretion,"normal rats; normal rats, iv bolus 50 μg/kg",24.4 ± 8.7 µmol/min
same,UNaV urine sodium excretion,"normal rats; normal rats, iv bolus 50 μg/kg",68.2 ± 15.7 µmol/min
same,UV urine volume,"normal rats; normal rats, iv bolus 50 μg/kg",341 ± 41 µL/min
same,UcGMPV urine cGMP volume,"normal rats; normal rats, iv bolus 50 μg/kg",2580 ± 505 pmol/min
same,MAP mean arterial pressure,"normal rats; normal rats, recovery period after 30-min washout",92 ± 11 mmHg
same,HR heart rate,"normal rats; normal rats, recovery period",368 ± 23 beats/min
same,PcGMP plasma cGMP,"normal rats; normal rats, recovery period",3.2 ± 0.3 pmol/mL
same,RAP right atrial pressure,"normal rats; normal rats, recovery period",-0.8 ± 0.9 mmHg
same,UKV urine potassium excretion,"normal rats; normal rats, recovery period",2.4 ± 0.1 µmol/min
same,UNaV urine sodium excretion,"normal rats; normal rats, recovery period",8.9 ± 3.5 µmol/min
same,UV urine volume,"normal rats; normal rats, recovery period",48 ± 14 µL/min
same,UcGMPV urine cGMP volume,"normal rats; normal rats, recovery period",105 ± 63 pmol/min
same,MAP mean arterial pressure,"normal rats; normal rats, second iv bolus 50 μg/kg, 15-min period",69 ± 7 mmHg
same,relaxation,[1]; femoral and saphenous arteries,no effects
same,"maximal response, percent change in tension from a contraction to phenylephrine","[1]; femoral artery, with endothelium, phenylephrine 10^-6 M",10 ± 5%
same,"maximal response, percent change in tension from a contraction to phenylephrine","[1]; femoral artery, without endothelium",19 ± 12%
same,"maximal response, percent change in tension from a contraction to phenylephrine","[1]; femoral vein, with endothelium",6 ± 3%
same,"maximal response, percent change in tension from a contraction to phenylephrine","[1]; femoral vein, without endothelium",4 ± 4%
same,relaxation,[1]; femoral veins,no effect
same,"maximal response, percent change in tension from a contraction to phenylephrine","[1]; pulmonary artery, with endothelium",60 ± 7%
same,"maximal response, percent change in tension from a contraction to phenylephrine","[1]; pulmonary artery, without endothelium",75 ± 8%
same,"maximal response, percent change in tension from a contraction to phenylephrine","[1]; pulmonary vein, with endothelium",49 ± 5%
same,"maximal response, percent change in tension from a contraction to phenylephrine","[1]; pulmonary vein, without endothelium",16 ± 3%
same,"maximal response, percent change in tension from a contraction to phenylephrine","[1]; renal artery, with endothelium",27 ± 6%
same,"maximal response, percent change in tension from a contraction to phenylephrine","[1]; renal artery, without endothelium",30 ± 6%
same,"maximal response, percent change in tension from a contraction to phenylephrine","[1]; renal vein, with endothelium",12 ± 3%
same,"maximal response, percent change in tension from a contraction to phenylephrine","[1]; renal vein, without endothelium",11 ± 4%
same,"maximal response, percent change in tension from a contraction to phenylephrine","[1]; saphenous artery, with endothelium",0 ± 0%
same,"maximal response, percent change in tension from a contraction to phenylephrine","[1]; saphenous artery, without endothelium",3 ± 3%
same,"maximal response, percent change in tension from a contraction to phenylephrine","[1]; saphenous vein, with endothelium",0 ± 0%
same,"maximal response, percent change in tension from a contraction to phenylephrine","[1]; saphenous vein, without endothelium",0 ± 0%
same,relaxation,[1]; saphenous veins,no effect
same,"relaxation, % of the contraction to phenylephrine","[1]; systemic arteries (femoral, saphenous and renal)",less than 30%
